Drawing on ChEMBL document CHEMBL1154460, “Tryptophan-containing dipeptide derivatives as potent PPARgamma antagonists: design, synthesis, biological evaluation, and molecular modeling” (Eur J Med Chem, 2008), this text covers inhibition and IC50 for 40 compounds.

The inhibition is how much of the control response was suppressed. As a reminder, the IC50 is the point on the concentration scale where inhibition reaches its midpoint.

SMILES strings stand for the structures. Active and inactive are the calls of the source. No cut-off for these calls is given here. Non-standard residues stand in square brackets, D forms with d. Residues, ends and D or L forms follow the SMILES beside them. *: point of attachment. 2Nal = N[C@@H](Cc1ccc2ccccc2c1)C(=O)O; Aad = N[C@@H](CCCC(=O)O)C(=O)O; OBn = c1ccc(CO*)cc1

The target in the first test is T1, Peroxisome proliferator-activated receptor gamma (Homo sapiens) (UniProt P37231).
T1 sequence (whole entry): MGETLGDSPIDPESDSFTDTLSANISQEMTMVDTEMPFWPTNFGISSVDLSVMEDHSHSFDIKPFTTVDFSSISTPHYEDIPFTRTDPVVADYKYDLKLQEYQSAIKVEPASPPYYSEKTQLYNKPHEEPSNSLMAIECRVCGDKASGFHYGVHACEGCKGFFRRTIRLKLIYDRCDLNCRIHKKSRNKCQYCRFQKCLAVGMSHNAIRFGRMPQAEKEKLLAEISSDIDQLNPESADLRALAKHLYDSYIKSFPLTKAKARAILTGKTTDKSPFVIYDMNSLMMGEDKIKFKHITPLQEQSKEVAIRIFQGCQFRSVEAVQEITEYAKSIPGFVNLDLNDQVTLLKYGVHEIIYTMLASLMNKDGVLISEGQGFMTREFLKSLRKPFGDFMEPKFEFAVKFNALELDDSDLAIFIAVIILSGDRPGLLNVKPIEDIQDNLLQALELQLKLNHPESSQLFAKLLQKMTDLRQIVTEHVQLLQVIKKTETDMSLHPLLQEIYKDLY
The test is described as follows: Antagonist activity at human PPARgamma receptor expressed in Saccharomyces cerevisiae AH109 co-transfected with mouse CBP assessed as inhibition of rosiglitazone-induced LBD-CBP interaction at 10 uM by alpha-galactosidase based yeast two hybrid assay. It counts as functional.
On to `N[C@@H](Cc1c[nH]c2ccccc12)C(=O)N[C@@H](CCC(=O)O)C(=O)O`, for which the inhibition amounted to 43.2%.
Turning to `N[C@@H](Cc1c[nH]c2ccccc12)C(=O)N[C@@H](CC(=O)O)C(=O)O`, the inhibition worked out at 57.8%.
On the same count and under the same terms, as for `COC(=O)CCC[C@H](NC(=O)[C@H](N)Cc1ccccc1)C(=O)OC`, the entry is “inactive”.
Still for that read-out and setting: as for `COC(=O)CC[C@@H](NC(=O)[C@@H](N)Cc1c[nH]c2ccccc12)C(=O)OC`, the entry is “inactive”; as for `COC(=O)CC[C@H](NC(=O)[C@@H](N)Cc1c[nH]c2ccccc12)C(=O)OC`, 4.05%; as for `COC(=O)CC[C@H](NC(=O)[C@@H](N)Cc1ccccc1)C(=O)OC`, 3.99%.
Still for that read-out and setting: then `COC(=O)CC[C@H](NC(=O)[C@H](N)Cc1ccccc1)C(=O)OC`, with “inactive”; and `COC(=O)C[C@H](NC(=O)[C@H](N)Cc1ccccc1)C(=O)OC`, with “inactive”; and `COC(=O)[C@H](C)NC(=O)[C@@H](N)Cc1ccccc1`, with “inactive”.
In the case of `COC(=O)[C@H](CC(C)C)NC(=O)[C@H](N)Cc1ccccc1`, the inhibition result was “inactive”.
On the same count and under the same terms, as for `N[C@@H](Cc1c[nH]c2ccccc12)C(=O)N[C@H](CC(=O)O)C(=O)O`, the figure is 15.5%.
The same measure, in the same setting: as for `N[C@@H](Cc1c[nH]c2ccccc12)C(=O)N[C@H](CCC(=O)O)C(=O)O`, the figure is 0.4%; as for `N[C@@H](Cc1c[nH]c2ccccc12)C(=O)N[C@H](CCC(=O)OCc1ccccc1)C(=O)OCc1ccccc1`, “inactive”.
Same read-out and setting: as for `N[C@H](Cc1c[nH]c2ccccc12)C(=O)N[C@@H](CC(=O)O)C(=O)O`, the figure is 0.68%; as for `N[C@H](Cc1c[nH]c2ccccc12)C(=O)N[C@H](CC(=O)O)C(=O)O`, 0.42%.
In the case of `N[C@@H](Cc1ccccc1)C(=O)N[C@@H](CC(=O)OCc1ccccc1)C(=O)OCc1ccccc1` (H-Phe-Asp(OBn)-OBn), the inhibition result was “inactive”.
Consider `N[C@@H](Cc1ccccc1)C(=O)N[C@@H](CC(=O)O)C(=O)O` (H-Phe-Asp-OH), for which the inhibition is 1.12%.
For the compound `N[C@@H](Cc1ccccc1)C(=O)N[C@@H](CCC(=O)OCc1ccccc1)C(=O)OCc1ccccc1` (H-Phe-Glu(OBn)-OBn), the inhibition entry is “inactive”.
Regarding `N[C@@H](Cc1ccccc1)C(=O)N[C@@H](CCC(=O)O)C(=O)O` (H-Phe-Glu-OH), the inhibition came to 4.3%.
As to `N=C(N)NCCC[C@H](NC(=O)[C@@H](N)Cc1c[nH]c2ccccc12)C(=O)O` (H-Trp-Arg-OH), the inhibition worked out at 45%.
The same measure, in the same setting: then `NC(=O)C[C@H](NC(=O)[C@@H](N)Cc1c[nH]c2ccccc12)C(=O)O` (H-Trp-Asn-OH), with 36.3%; and `N[C@@H](Cc1c[nH]c2ccccc12)C(=O)N[C@@H](CC(=O)OCc1ccccc1)C(=O)OCc1ccccc1` (H-Trp-Asp(OBn)-OBn), with 5.33%.
Still for that read-out and setting: as for `COC(=O)C[C@H](NC(=O)[C@@H](N)Cc1c[nH]c2ccccc12)C(=O)OC` (H-Trp-Asp(OMe)-OMe), the entry is “inactive”; as for `NC(=O)CC[C@H](NC(=O)[C@@H](N)Cc1c[nH]c2ccccc12)C(=O)O` (H-Trp-Gln-OH), 38.6%.
On the same count and under the same terms, as for `CC(C)C[C@H](NC(=O)[C@@H](N)Cc1c[nH]c2ccccc12)C(=O)OCc1ccccc1` (H-Trp-Leu-OBn), the entry is “inactive”.
Turning to `CC(C)C[C@H](NC(=O)[C@@H](N)Cc1c[nH]c2ccccc12)C(=O)O` (H-Trp-Leu-OH), the inhibition is 58.2%.
Still for that read-out and setting: then `COC(=O)[C@H](CC(C)C)NC(=O)[C@@H](N)Cc1c[nH]c2ccccc12` (H-Trp-Leu-OMe), with 5.29%; and `COC(=O)CCC[C@H](NC(=O)[C@@H](N)Cc1c[nH]c2ccccc12)C(=O)OC` (H-Trp-[Aad](OMe)-OMe), with 8.74%; and `N[C@@H](Cc1c[nH]c2ccccc12)C(=O)N[C@@H](CCCC(=O)O)C(=O)O` (H-Trp-[Aad]-OH), with 70%.
In the case of `COC(=O)CC[C@H](NC(=O)[C@@H](N)Cc1ccc(OC)cc1)C(=O)OC` (H-Tyr(Me)-Glu(OMe)-OMe), the inhibition came to 5.26%.
Same read-out and setting: then `N[C@@H](Cc1ccc2ccccc2c1)C(=O)N[C@@H](CCC(=O)OCc1ccccc1)C(=O)OCc1ccccc1` (H-[2Nal]-Glu(OBn)-OBn), with 27.7%; and `COC(=O)CC[C@H](NC(=O)[C@@H](N)Cc1ccc2ccccc2c1)C(=O)OC` (H-[2Nal]-Glu(OMe)-OMe), with 14.7%.
Regarding `N[C@@H](Cc1ccc2ccccc2c1)C(=O)N[C@@H](CCC(=O)O)C(=O)O` (H-[2Nal]-Glu-OH), the inhibition turned out to be 2.1%.
Still for that read-out and setting: then `COC(=O)[C@H](CC(C)C)NC(=O)[C@@H](N)Cc1ccc2ccccc2c1` (H-[2Nal]-Leu-OMe), with 4.34%.

The next test concerns the target T2, Peroxisome proliferator-activated receptor gamma (Homo sapiens, UniProt P37231).
T2 sequence (P37231 whole entry): T1 sequence (whole entry)
The test is described as follows: Antagonist activity at human PPARgamma receptor expressed in Saccharomyces cerevisiae AH109 co-transfected with mouse CBP assessed as inhibition of rosiglitazone-induced LBD-CBP interaction by alpha-galactosidase based yeast two hybrid assay. It counts as functional.
As for `CC(C)(c1ccc(OCC2CO2)cc1)c1ccc(OCC2CO2)cc1` (configuration not stated), the IC50 stood at 100 µM.
The same measure, in the same setting: as for `O=C(Nc1ccccc1)c1cc([N+](=O)[O-])ccc1Cl`, the figure is 3.3 µM; as for `N[C@@H](Cc1c[nH]c2ccccc12)C(=O)N[C@@H](CCC(=O)O)C(=O)O`, 8.67 µM; as for `O=C(O)C(Oc1cccc(C(F)(F)F)c1)c1ccc(Cl)cc1` (configuration not stated), 0.22 µM.
Regarding `C=CCn1cc([N+](=O)[O-])s/c1=N\C(=O)C(C)(C)C`, the IC50 is 0.82 µM.
The same measure, in the same setting: as for `N[C@@H](Cc1c[nH]c2ccccc12)C(=O)N[C@@H](CC(=O)O)C(=O)O`, the figure is 5.2 µM.
For the compound `N=C(N)NCCC[C@H](NC(=O)[C@@H](N)Cc1c[nH]c2ccccc12)C(=O)O` (H-Trp-Arg-OH), the IC50 came out at 15.4 µM.
Still for that read-out and setting: then `NC(=O)C[C@H](NC(=O)[C@@H](N)Cc1c[nH]c2ccccc12)C(=O)O` (H-Trp-Asn-OH), with 18.4 µM; and `NC(=O)CC[C@H](NC(=O)[C@@H](N)Cc1c[nH]c2ccccc12)C(=O)O` (H-Trp-Gln-OH), with 18.7 µM.
For the compound `CC(C)C[C@H](NC(=O)[C@@H](N)Cc1c[nH]c2ccccc12)C(=O)O` (H-Trp-Leu-OH), the half-maximal inhibitory concentration (IC50) amounted to 25.8 µM.
In the case of `N[C@@H](Cc1c[nH]c2ccccc12)C(=O)N[C@@H](CCCC(=O)O)C(=O)O` (H-Trp-[Aad]-OH), the IC50 is 15.1 µM.
Still for that read-out and setting: then `CC(=O)NCCOC(=O)C(Oc1cccc(C(F)(F)F)c1)c1ccc(Cl)cc1` (configuration not stated) [HALOFENATE], with 40 µM.
On the same count and under the same terms, then `COP(=O)(OC)OC(c1ccc(Cl)cc1)P(=O)(OC)OC` (configuration not stated) [MIFOBATE], with 140 µM.
